In assay [1] the target is T1, Der p 1 (Dermatophagoides pteronyssinus, UniProt P08176).
T1 sequence (P08176 99-320): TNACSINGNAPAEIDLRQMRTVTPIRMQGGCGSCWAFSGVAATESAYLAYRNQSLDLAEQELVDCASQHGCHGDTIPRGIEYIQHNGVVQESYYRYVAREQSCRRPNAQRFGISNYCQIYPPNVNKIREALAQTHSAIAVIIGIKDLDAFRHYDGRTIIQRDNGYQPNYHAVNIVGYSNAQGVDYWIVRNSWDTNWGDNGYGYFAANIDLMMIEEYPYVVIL
The conditions noted are these: literature (Herbert et al. 1995; Hewitt et al. 1995, 1997); cited from earlier work.

Assay [2] deals with Calu-3 cells. The assay is described as follows: DNA fragmentation (agarose gel), Calu-3 cells. The format is cell-based, human. The conditions noted are these: BB-250 5μM, E-64 10μM; for inhibition of cysteine proteinase fraction-induced DNA fragmentation: fraction 80 azocoll units ml^−1 (FIG. 7b). On the procedure: Cells were plated on 60×15 mm petri dishes and grown for 2-4 days in serum-containing EMEM under tissue culture conditions in a 5% CO2 atmosphere. Cells were then exposed to treatments in serum-free EMEM containing 20 mM HEPES whilst under aerobic incubation at 37° C. At defined time points, cells were harvested with a scraper and pooled with detached cells in the supernatant. Cells were centrifuged at 550×g for 5 min and their DNA extracted (Nucleon II, Scotlab, Coatbridge, Stratchclyde). The extracted DNA was resuspended in 100μl TE buffer (10 mM Tris-HCL and 1 mM Na2EDTA) overnight at room temperature and its purity determined spectrophotometrically. Equal amounts of DNA were applied in 4:1 ratio with sample buffer (0.25% bromophenol blue and 40% w/v sucrose in water) to each lane of 2% (w/v) agarose gels and electrophoresis performed at 50V for 2-3h in TAE buffer (0.04M Tris-acetate and 0.001M EDTA). Bands of DNA in the gels (which had ethidium bromide incorporated into them) were visualized by ultra-violet light.

The subject of assay [3] is MDCK cell monolayers. The assay is described as follows: Mannitol permeability of MDCK cell monolayers exposed to HDM proteinase fractions. The format is cell-based, canine. The conditions noted are these: for effect of inhibitor alone on intrinsic epithelial permeability: inhibitor per se, no proteinase fraction (FIG. 3); for inhibition of the action of the serine proteinase fraction on mannitol permeability: AEBSF 100μM, fraction 127 azocoll units ml^−1, 18 h (FIG. 3b). On the procedure:
(§1) Measurements of mannitol clearance were performed on confluent cell monolayers that had been propagated on 0.4μm pore diameter Costar Transwell™ inserts coated with an ungelled ultra-thin undercoat of Madrigel. Coating was achieved by addition of 250μl aliquots of Matrigel (diluted 1:500 v/v in EMEM) to the interior of the insert followed by ambient incubation for 60 min under aseptic conditions. The solution was then aspirated and the inserts gently washed with medium before the addition of a confluent density of cell suspension.
(§2) Cells (2-5×10^5 per cm^2 growth area) were plated onto Matrigel-coated inserts. We use the term ‘insert’ as meaning the filter unit containing the cells and the term ‘well’ as referring to the cavities of the tissue culture plate. To monitor growth and integrity, inserts were taken at random, washed gently in PBS and stained under subdued illumination with acridine orange and ethidium bromide (1mg ml^−1 each in PBS). Inserts were examined by fluorescence microscopy and were used only when confluence with high viability was attained.
(§3) At confluence, the medium was aspirated from the wells and replaced with serum- and bicarbonate-free EMEM buffered with 20 mM HEPES and containing 2 mM L-glutamine. The medium from the inserts was then gently removed and replaced with 300μl of serum-free EMEM containing [^14C]-mannitol (1μCi ml^−1 and 1 mg ml^−1 unlabelled mannitol in HEPES-buffered medium). The Transwell™ plates were then equilibrated for 30 min at 37° C. on a Luckham R100 orbital shaker. Triplicate 100μl aliquots of the unused labelled mannitol solution were sampled and their radioactivity content determined by liquid scintillation spectrometry (Beckman LS6000IC) following addition of 5 ml Opti-Fluor.
(§4) After the equilibration period, the inserts were placed in fresh wells containing 1 ml of serum-free HEPES buffered EMEM and incubated at 37° C. with continuous gentle shaking. The medium from the original wells was retained and its radioactivity content determined after the addition of 10 ml Opti-Fluor. […] At timed intervals, 20μl aliquots of the basolateral bathing fluid were removed and the amount of ^14C mannitol quantified as described above for the calculation of clearance volume.
Clearance estimates were made over 3-5h and were calculated according to the relationship: [formula]
(§5) Under conditions where diffusion is the sole means of transepithelial movement of the solute, dVprobe/dt approximates closely to the permeability-surface area product thus allowing estimation of the permeability of mannitol in the composite system of cells, filter, unstirred layers and protein coating (Pt). Epithelial permeability can be calculated from the measured variable by considering the Matrigel-coated filter and unstirred layers as a system of series permeabilities. Thus: [formula]
Unstirred layer thicknesses are independent of membrane permeability under ideal conditions thus P3 in equations (3) and (4) are identical. Subtracting equations (2) and (3) thus permits the calculation of the permeability of the epithelial monolayer (5). [formula]
Analysis of variance was performed after log transformation of the permeability data and probability values for the different treatments assigned using the least significant difference test. Data are presented as the geometric mean values with indicated standard errors of n experimental observations. Probability levels of P<0.05 were considered statistically significant.

Assay [4] has as its system intercellular junctions of MDCK cells (ZO-1, desmoplakin). The assay is described as follows: Immunocytochemical visualization of intercellular junctions (ZO-1, desmoplakin). It counts as cell-based, canine. Here is the method: To study the effects of proteinases and inhibitors on intercellular junctions, MDCK cells were cultured on coverslips and treated with the appropriate proteinase and/or inhibitor for the desired time period. The cells were fixed in ice-cold methanol before binding of rat anti-ZO-1 (mAb R40.76) (Stevenson et al., 1986; Anderson et al., 1988) and mouse anti-desmoplakin (mAb 11-5F) (Parrish et al., 1987). Indirect fluorescent antibody staining was performed using FITC- and TRITC-conjugated second antibodies. Microscopy was carried out using a Zeiss Axiovert microscope with x40 magnification oil immersion Fluar objective. Specimens were illuminated using excitation and emission filter sets for FITC and TRITC. Cells were photographed as described above.

Assay [5] deals with Calu-3 cell monolayers. The assay is described as follows: Mannitol permeability of Calu-3 cell monolayers exposed to HDM proteinase fractions. The format is cell-based, human. The conditions noted are these: for inhibition of the permeability change caused by the serine proteinase fraction: E-64 10μM, fraction 94 azocoll units ml^−1, 18 h (FIG. 4b); for mannitol permeability: P<0.05, n=5. On the procedure: as §1, §2, §3, §4
Paracellular permeability of mannitol was determined in accordance with the procedure described in our copending U.K. Patent Application No. 9715058 and was calculated from measurements of clearance volume at defined time points. Clearance estimates were made over 3-5h and were calculated according to the relationship: [formula]
as §5
Unstirred layer thicknesses are independent of membrane permeability under ideal conditions thus P3 in equations (3) and (4) are identical. Subtracting equations (2) and (3) thus permits the calculation of the permeability of the epithelial monolayer (5). [formula] […]

For assay [6], the system named is ICE/ced-3 caspase family. The conditions noted are these: literature; cited from earlier work.
Assay [7] has as its target T2, HDM cysteine proteinase fraction (50% precipitate) (Dermatophagoides pteronyssinus, UniProt P08176).
T2 construct: tissue Commonwealth Serum Laboratory, Parkville, Australia; host or cells: spent culture medium of D. pteronyssinus, 50% saturated ammonium sulphate pellet
T2 sequence (P08176 99-320): T1 sequence (P08176 99-320)
Put plainly: Enzyme degradation of chromogenic substrates by the 50% ammonium sulphate precipitate. The format is biochemical, D. pteronyssinus. The conditions noted are these: data not shown. The source says:
HDM proteinase allergens have not yet been prepared in catalytically competent form by recombinant cellular expression of the mature enzyme protein. For convenience, and to enable future large scale screening of potential inhibitors in the absence of catalytically active recombinant proteins, we sought to separate the cysteine and serine proteinase activity by simple biochemical fractionation of spent medium in which HDM had been grown. During culture the HDM release allergens into the medium resulting in the accumulation of proteins suitable for purification. Spent medium from cultures of D. pteronyssinus (Commonwealth Serum Laboratory, Parkville, Australia) was dissolved in 5 volumes of phosphate buffered saline and then centrifuged at 48,400×g and 4° C. for 20 min. Ammonium sulphate was added gradually to the stirred supernatant at 4° C. to achieve a 50% saturated solution. After centrifugation (48,400×g, 20 min, 4° C.) the pellet, found by enzymatic assay to be enriched in cysteine proteinase activity, was redissolved in a minimum volume of distilled water. […] Protein content of the extracts was measured using the […] technique with serum albumin as standard (Smith et al, 1985). Proteinase activity was measured using the Azocoll degradation assay as described elsewhere (Herbert et al., 1995; Chavira et al., 1984). […]

`CC(C)C[C@H](NC(=O)[C@H]1O[C@@H]1C(=O)O)C(=O)NCCCCN=C(N)N` (relative stereo) [E-64, L-trans-epoxysuccinyl-leucylamido-(4-guanidino)-butane]: the “inhibition of Der p 1 activity / effects” value in assay [1] is “sensitive to inhibition”. Besides, in assay [2], the “inhibition of cysteine proteinase fraction-induced DNA fragmentation” value is “inhibited”. Besides, the “inhibition of the effect of the cysteine proteinase fraction on mannitol permeability” value in assay [3] (E-64 10μM, fraction 80 azocoll units ml^−1, 18 h (FIG. 3a)) was “attenuated”. In assay [3], the “effect of inhibitor alone on intrinsic epithelial permeability” value (“effect of inhibitor alone” for short) is reported as “no observable effect”. Moreover, in assay [4] (E-64 10μM, fraction 80 azocoll units ml^−1), the “inhibition of cysteine proteinase fraction-dependent changes in ZO-1/desmoplakin staining” value was “inhibited”. The “inhibition of the permeability change caused by the serine proteinase fraction” value in assay [5] (Calu-3) was “did not inhibit”. Further, the mannitol permeability in assay [5] (Calu-3 treated with cysteine proteinase fraction plus E-64) is on record as 4.84±0.32 ×10^−6 cm s^−1. In assay [6], the “sensitivity of ICE/ced-3 caspases to the inhibitor” value is listed as “insensitive”. For the same molecule, the “catalytic activity of the 50% precipitate” value in assay [7] is “inhibitable”.

In the case of `Cl.NCCc1ccc(S(=O)(=O)F)cc1` [AEBSF, 4-(2-aminoethyl)-benzenesulphonyl fluoride hydrochloride], in assay [3], the “inhibition of the action of the serine proteinase fraction on mannitol permeability” value is listed as “inhibited” and the “effect of inhibitor alone” value is recorded as “Neither inhibitor per se exerted any observable effect”. In assay [4] (AEBSF 100μM, fraction 94 azocoll units ml^−1), the “inhibition of serine proteinase fraction-dependent changes in ZO-1/desmoplakin staining” value is recorded as “inhibited”. Also, the “inhibition of the action of the cysteine proteinase fraction on mannitol permeability” value in assay [5] (Calu-3, AEBSF 100μM, fraction 80 azocoll units ml^−1, 18 h (FIG. 4a)) is “failed to inhibit”. The “inhibition of the permeability change caused by the serine proteinase fraction” value in assay [5] (Calu-3) is on record as “ablated”. Also, the mannitol permeability in assay [5] (Calu-3 treated with serine proteinase fraction plus AEBSF) is 10.20±0.01 ×10−6 cm s^−1.

Regarding `N=C(N)c1ccc(CS(=O)(=O)F)cc1` [APMSF], the “inhibition of Der p 1 activity / effects” value in assay [1] is on record as “reported to be inhibited”.

For `CNC(=O)[C@H](Cc1ccccc1)NC(=O)[C@H](CC(C)C)[C@H](CS(=O)(=O)c1cccs1)C(=O)NO` [BB-250, [4-(N-hydroxyamino)-2R-isobutyl-3S-(thiophen-2-yl-sulphonylmethyl)succinyl]-L-phenylalanine-N-methylamide], the “inhibition of cysteine proteinase fraction-induced DNA fragmentation” value in assay [2] is reported as “attenuated”. Besides, the “inhibition of serine proteinase fraction-induced DNA fragmentation” value in assay [2] (fraction 94 azocoll units ml^−1 (FIG. 7b)) is “attenuated”.

B1: SBTI: serine proteinase inhibitor; abbreviation not expanded in the patent (protein, UniProt P01070 25-205, looked up)
Trypsin inhibitor A: DFVLDNEGNPLENGGTYYILSDITAFGGIRAAPTGNERCPLTVVQSRNELDKGIGTIISSPYRIRFIAEGHPLSLKFDSFAVIMLCVGIPTEWSVVEDLPEGPAVKIGENKDAMDGWFRLERVSDDEFNNYKLVFCPQQAEDDKCGDIGISIDHDDGTRRLVVSKNKPLVVQFQKLDKESL
On to B1, for which, in assay [3], the “inhibition of the action of the serine proteinase fraction on mannitol permeability” value is reported as “less effectively” and the “effect of inhibitor alone” value is reported as “Neither inhibitor per se exerted any observable effect”.
